According to patent US20240307353A1, “JAK1 PATHWAY INHIBITORS FOR THE TREATMENT OF ASTHMA” (Incyte Corporation, priority 2023, published 2024):

Assays:
[1] = system: HDM-induced severe asthma model; assay: House dust mite (HDM)-induced severe asthma model, lung mechanics after methacholine challenge; type: in vivo, female BALB/c mice
Description: (§1) In vivo studies were conducted to test Compound 1 in two models of severe asthma. The first study conducted included an experimental house dust mite (HDM)-induced severe asthma model representative of both Th2/eosinophilic and Th1/Th17/neutrophilic asthma endotypes. The second study conducted included an ovalbumin (OVA) model of acute asthma which more closely represents a Th2/eosinophilic asthma endotype. For each model, fifty-eight female BALB/c mice were randomly and prospectively assigned to six groups, one group of six, one group of twelve, and four groups of ten animals each (see Table 3).
HDM model: On Day 0, animals in Groups 2-6 were sensitized with 50 μg of HDM in an emulsion with 150 μg of complete Freund's adjuvant (CFA) in a 100 μL volume by subcutaneous injection (SC). Animals in Groups 2-6 were challenged on Day 14 with 50 μg HDM in 40 μL saline via intra-nasal instillation (IN). Group 1 served as the naïve control group. On Days 12, 13, 14, and 15, animals in Groups 2-6 were dosed according to Table 3. […] On Day 16, animals underwent methacholine challenge with lung mechanics measurements using a flexi Vent mechanical ventilator.
(§2) . Elasticity of the lung (H) shown in FIGS. 6A-B and airway resistance in small airways and alveoli (G) shown in FIGS. 7A-B were measured using a flexiVent mechanical ventilator following challenge with 25 mg/mL methacholine. Group numbers represent the following treatments: 1) naïve; 2) diseased, vehicle treated; 3) diseased, Compound 1 (1 mg/kg); […]; and 6) diseased, positive control. Data are presented as mean±SEM. n=6-12 per group. Statistical significance between groups was determined by one-way ANOVA with Dunnett's multiple comparisons test used to compare all groups to the vehicle-control group. (*:p<0.05; **:p≤0.01).

[2] = system: OVA model of acute asthma; assay: Ovalbumin (OVA) model of acute asthma, lung mechanics after methacholine challenge; type: in vivo, female BALB/c mice
Description: as §1
OVA model: On Day 0 and Day 7, animals in Groups 2-6 were sensitized with 20 μg of OVA and 1.5 mg Alum in 100 μL volume by intraperitoneal injection (IP). Animals in Groups 2-6 were challenged on Day 13, 14, and 15 with 20 μg OVA in 50 μL PBS via intra-nasal instillation (IN). Group I served as the naïve control group. On Days 12, 13, 14, and 15, animals in Groups 2-6 were dosed according to Table 3. On Day 16, animals underwent methacholine challenge with lung mechanics measurements using a flexiVent mechanical ventilator.
as §2

[3] = system: cytokine production in whole blood stimulated with Dynabeads Human T-Activator CD3/CD28; assay: Whole blood assay, plasma cytokines after CD3/CD28 stimulation (MSD multiplex); type: cell-based; conditions: 0.3 μM, 1 μM, 19 hours at 37° C., n=6
Description: An in vitro study was conducted to investigate the impact of Compound 1 on eosinophil and neutrophil activation and cytokine production that play a role in contributing to eosinophilic and noneosinophilic (neutrophilic) asthma endotypes. Whole blood from healthy volunteers was unstimulated (Unstim) or stimulated with Dynabeads™ Human T-Activator CD3/CD28 in the absence (0) or presence (0.3 μM, 1 μM) of Compound 1 for a total of 19 hours at 37° C. Whole blood was analyzed for cell surface activation marker CD69 gated for eosinophils or neutrophils by flow cytometry (n=12). Plasma was isolated from the whole blood and analyzed for various cytokines using a MSD multiplex platform (n=6). […] Because Compound 1 inhibits the production of Th2/Th1/Th17 cytokines and reduces activation of eosinophils and neutrophils Compound 1 provides an endotype-agnostic means to treat severe asthma.
FIGS. 2-4 depict the effect of Compound 1 on cytokine levels in a whole blood assay. Plasma was isolated from whole blood samples and analyzed for Th2 cytokines (FIGS. 2A-C: IL-4, IL-5, and IL-13 respectively); Th1/Th17 cytokines (FIGS. 3A-C: IFNγ, TNFα, and IL-22 respectively), and other inflammatory cytokines/chemokines (FIGS. 4A-B: CXCL10 and IL-6 respectively). Each symbol represents a different donor. Values from individual donors are shown, along with mean value for each treatment. Data was plotted in GraphPad PRISM v.9.3.1 and analyzed by a paired t test (*:p<0.05; **:p≤0.01; ***:p≤0.001).

For `Cc1n[nH]c(C)c1-c1cnn(C2(CC#N)CN(c3cc(F)c(C(=O)N[C@@H](C)C(F)(F)F)cc3F)C2)c1` [Compound 1, 4-[3-(cyanomethyl)-3-(3′,5′-dimethyl-1H,1′H-4,4′-bipyrazol-1-yl)azetidin-1-yl]-2,5-difluoro-N-[(1S)-2,2,2-trifluoro-1-methylethyl]benzamide], the “elasticity of the lung (H)” value ([1]; 25 mg/mL methacholine) was “decreases”, the “resistance in small airways and alveoli (G)” value (“resistance” for short) ([1]; 25 mg/mL methacholine) was “decreases” and the “airway measures (Rrs, Ers, G, H), difference between groups” value ([1]; 10 and 30 mg/kg, Days 12-15, methacholine challenge Day 16) was “no significant differences”. The “elasticity of the lung (H)” value ([2]; 10 mg/kg dose) was “significant reduction”, the “resistance” value ([2]; 10 mg/kg dose) was “significant reduction” and the “elasticity of the lung (H)” value ([2]; 25 mg/mL methacholine) was “reversed the elevation”. For the same compound, the “resistance” value ([2]; 25 mg/mL methacholine) was “reversed the elevation”, the “Th1 and Th17/Th22 cytokines (IFNγ, TNFα, IL-22)” value [3] was “reduced Th1 and Th17/Th22 cytokines induced by T-cell activation in a concentration-dependent manner” and the “inflammatory cytokines/chemokines (CXCL10, IL-6)” value [3] was “reduced inflammatory cytokines/chemokines induced by T cell activation in a concentration-dependent manner”. The “levels of Th2 cytokines (IL-4, IL-5, IL-13)” value [3] was “reduced the levels of Th2 cytokines induced by T-cell activation in a concentration-dependent manner”.
